Data published in patent US10935552B2, “Aie luminogens for visualization and treatment of cancer” (THE HONG KONG UNIVERSITY OF SCIENCE AND TECHNOLOGY, priority 2015, dated 2021).

Legend:
MCF-7 cells = assay: Cell imaging under fluorescent microscope, MCF-7 cells; assay type: cell-based; conditions: 200 nM
Experimental: (§1) Cell culture: HeLa cells were cultured in the MEM containing 10% FBS and 1% antibiotics (100 units/mL penicillin and 100 µg/mL streptomycin) in a 5% CO2 humidity incubator at 37° C. COS-7, MDA-MB-231, MCF-7, and MDCK-II cells were culture in the DMEM containing 10% FBS and antibiotics (100 units/mL penicillin and 100 µg/mL streptomycin) in a 5% CO2 humidity incubator at 37° C.
(§2) Cell imaging: two different kind of cells were grown overnight on a 35 mm petri dish with a cover slip. The live cells were incubated with 200 nM of TPE-IQ-2O for 1, 5, 10, and 20 mins. In a typical experiment, 2 μL of a 10 mM stock solution of TPE-IQ-2O in DMSO was diluted to 2 mL with cell culture medium, followed by further dilution to desired concentration. The cells were imaged under a fluorescent microscope (BX41 Microscope) using the same excitation and emission filters: excitation filter=400-440 nm, dichroic mirror=455 nm, and emission filter=465 nm long pass.
(§3) Two different kinds of cells were grown overnight on a 35 mm petri dish with a cover slip. The live cells were incubated with 200 nM of TPE-IQ-2O for 20, 10, and 5 mins. […] Condition: 200 nM (Filter: both close; Channel 5; EX: 400-440 nm; Exposure time: bright field: 1000 ms Fluorescence: 1000 ms.

HeLa cells = assay: Cell imaging under fluorescent microscope, HeLa cells; assay type: cell-based, human; conditions: 200 nM
Experimental: as §1, §2
Two different kinds of cells were grown overnight on a 35 mm petri dish with a cover slip. The live cells were incubated with 200 nM of TPE-IQ-20 for 20, 10, 5, and 1 mins. The Hela cells were stained by TPE-IQ-2O; the COS-7 cells were stained by TPE-IQ-2O; the Hela cells and COS-7 cells were co-cultured and stained together by TPE-IQ-2O. Condition: 200 nM (Filter: both close; Channel 5; EX: 400-440 nm; Exposure time: bright field: 1000 ms Fluorescence: 1000 ms.
Two different kinds of cells were grown overnight on a 35 mm petri dish with a cover slip. The live cells were incubated with 200 nM of TPE-IQ-2O for 10 mins. The Hela cells were stained by TPE-IQ-2O; the MDCKII cells were stained by TPE-IQ-2O; the MDA-MB-231 cells and COS-7 cells were co-cultured and stained together by TPE-IQ-2O. Condition: 200 nM 10 mins (Filter: both close; Channel 5; EX: 400-440 nm; Exposure time: bright field: 1000 ms Fluorescence: 1000 ms.
(§4) HepG2 cells (human hepatocarcinoma cell line), PC-9 cells (human lung adenocarcinoma cell line), Hela cells (human cervical carcinoma cell line), and LX2 cells (normal cell, human hepatic stellate cell line) were stained with 200 nM DPA-IQ for 10 min. Images were taken under the same equipment settings. Scale bar: 30 μm. Excitation wavelength: 400-440 nm.

HCC827 cells = assay: Cell imaging, HCC827 cells; assay type: cell-based; conditions: HCC827, 200 nM, 20 and 10 mins
Experimental: The PC-9, HepG2, and HCC827 cells were grown overnight on a 35 mm petri dish with a cover slip. The live cells were incubated with 200 nM of TPE-IQ-2O for 20 and 10 mins. In all the experiments, the cancer cells are fluorescent in solely staining.

COS-7 cells = assay: LDH cytotoxicity assay, COS-7 cells; assay type: cell-based, simian; conditions: COS-7, with or without white light irradiation
Experimental: The HeLa and COS-7 cells were seeded in 96-well plate for 24 hrs. Then a different concentration of TPE-IQ-2O was added into each well. After 30 mins TPE-IQ-2O treatment in the dark, the dye was removed. Half of the cells were treated with white light irradiation for 90 mins and the rest of cells were kept in the dark. After another 24 hrs of incubation, 10 μL of 10× lysis buffer bromide was added to untreated cells as Maximum LDH Activity, while 10 μL ultrapure water was added to other wells. After incubation at 37° C. 5% CO2 for 45 mins, 50 μL of each well sample medium was transferred to a new 96-well plate, followed by addition of 50 μL reaction mixture. 50 μL stop solution were added into each well after 30 mins incubation protected from light. Then the absorbance was achieved by plate reader.

MDA-MB-231 cells = assay: Cell imaging under fluorescent microscope, MDA-MB-231 cells; assay type: cell-based; conditions: 200 nM
Experimental: as §1, §2
as §3, with “10, 5,” for “10,”, “and 1” for “and 5”

LX2 cells = assay: Cell imaging, LX2 normal cells; assay type: cell-based, human; conditions: LX2, 200 nM, 20 and 10 mins
Experimental: The LX2 cells were grown overnight on a 35 mm petri dish with a cover slip. The live cells were incubated with 200 nM of TPE-IQ-2O for 20 and 10 mins.
as §4

mitochondria = assay: Co-staining with commercial organelle trackers in HeLa cells (mitochondria staining); assay type: cell-based, human; conditions: HeLa, 200 nM with Mito-tracker red/Lyso-tracker red/DAPI, 20 mins
Experimental: The HeLa cells were grown overnight on a 35 mm petri dish with a cover slip. Then the HeLa cells were stained with 200 nM TPE-IQ-2O and Mito-tracker red (50 nM)/Lyso-tracker red (50 nM)/DAPI (500 nM) for 20 mins.
The DMSO solution of DPA-IQ was almost non-emissive while the aggregation state powder of this material emits strong green luminescence upon the UV excitation.
The commercially available MitoTracker Red FM is co-stained as a control together with Naph-IQ.

CCC[n+]1cc2ccc(C(=C(c3ccc(OC)cc3)c3ccc(OC)cc3)c3ccccc3)cc2c(-c2ccccc2)c1-c1ccccc1 [TPE-IQ-2O, 6-(2,2-bis(4-methoxyphenyl)-1-phenylvinyl)-3,4-diphenyl-2-propylisoquinolin-2-ium]
Fluorescence in co-culture (MCF-7 cells; MCF-7 and COS-7 co-cultured and stained together): fluorescence only from the MCF-7 cancer cell | Fluorescence of stained cells (MCF-7 cells; MCF-7 stained alone, 5-20 min): fluorescent | Fluorescence in co-culture (HeLa cells; HeLa and COS-7 co-cultured and stained together): fluorescence only from the Hela cancer cell | Fluorescence in co-culture (HeLa cells; HeLa and MDCK-II grown in the same environment, 10 mins): fluorescence only from the Hela cancer cell | Fluorescence of stained cells (HeLa cells; HeLa stained alone, 1-20 min): fluorescent | Fluorescence of stained cells (HCC827 cells): fluorescent | LDH cytotoxicity (COS-7 cells): no obvious cytotoxicity | Fluorescence in co-culture (MDA-MB-231 cells; MDA-MB-231 and COS-7 co-cultured and stained together): fluorescence only from the MDA-MB-231 cancer cell | Fluorescence of stained cells (MDA-MB-231 cells; MDA-MB-231 stained alone, 1-20 min): fluorescent | Fluorescence of stained cells (LX2 cells): no obvious fluorescence | Organelle selectivity (mitochondria): can selectively target the mitochondria
